Results on two molecules are retold here after US20200046811A1, “METHODS AND COMPOSITIONS FOR MODULATING FGF23 LEVELS” (Northwestern University, priority 2014, published 2020).

One test has as its system Klotho (kl/kl) mice. The test is described as follows: TM5441 treatment of Klotho mice, plasma FGF23 by ELISA. It counts as in vivo. The settings on record: 100 mg/kg/day in chow for 120 days, C-Term ELISA (FIG. 1). The procedure:
Four week old Klotho (kl/kl) mice (n=11) were administered TM5441 at the dose of 100 mg/kg/day for 120 days. The chow diet containing the inhibitor was prepared by mixing a homogenous suspension of TM5441 made in 0.5% Carboxy Methyl Cellulose into the powder chow diet (Harland Teklad LM-485 number 7012). The plasma levels of FGF23 was measured using an ELISA kit (Immutopics, Inc. Mouse/Rat FGF-23 (C-Term) ELISA Kit, Cat. #60-6300) by following the manufacturer's protocol.
On the technique in general: In an ELISA, binding on a coated surface is turned into a signal by an enzyme label.

Test [1] has as its target T1, recombinant human stable PAI-1 (Homo sapiens, UniProt P05121, K177T/M377I/N173H/Q342L).
T1 construct: purchased Molecular Innovations Inc., Novi, Mich
The test is described as follows: In vitro FGF23 proteolysis by t-PA with PAI-1 and added TM5441. The following applies: TM5441 added to t-PA + PAI-1 reaction, 4 hours at 37° C., silver stained SDS-PAGE, FIG. 3. The test is classed as biochemical. The method, then:
(§1) Recombinant human t-PA, uPA, and stable PAI-1 were obtained from Molecular Innovations Inc., Novi, Mich. Recombinant Human FGF23 was obtained from R and D Systems Inc., Minneapolis Minn.
TM5441 was obtained from Toshio Miyata, M. D., Ph.D. and Renascience, Inc. A stock solution of 2.5 mM was prepared in DMSO.
(§2) Gels were silver stained using the Pierce Silver Stain Kit from Thermo Fisher Scientific Inc. Waltham, Mass., according to the manufacturer's protocol.
Recombinant human FGF23 (1-1.5 μg) was incubated at 37° C. for 4 hours (or other time point indicated) with either recombinant human t-PA (1.1 μg) or uPA (1.1 μg), (in addition to 1.70 μg of recombinant human stable PAI-1 where indicated) in reaction buffer (25 μl final volume) containing: 50 mM Tris-HCl pH 8.0, 150 mM NaCl, 200 mM CHAPS, 0.1% PEG-8000, and 1% DMSO. To terminate the reaction, samples were incubated at 95° C. for 5 minutes in the presence of 1×NuPAGE LDS sample buffer and 1× NuPAGE sample reducing agent.

Another test deals with Recombinant human FGF23. The experiment in a line: In vitro protease reactions: FGF23 proteolysis by t-PA or uPA (silver stained SDS-PAGE, western blot). The test is classed as biochemical.
Text: as §1
The 6×His tag antibody was obtained from Abcam Inc., Cambridge Mass., and the FGF23 antibody was obtained from Santa Cruz Biotechnology Inc., Dallas Tex. Secondary HRP conjugated donkey anti goat (cross-adsorbed) and goat anti-rabbit antibodies were obtained from Bethyl Laboratories Inc., Montgomery, Tex., and Molecular Innovations Inc. respectively. 4-12% NuPAGE Bis-Tris Gels, PVDF iblot gel transfer stacks, 4×NuPAGE LDS sample buffer and 10×NuPAGE sample reducing agent were from Life Technologies Inc., Carlsbad, Calif. Luminata Forte Western HRP Substrate detection reagent was from EMD Millipore Inc., Billerica, Mass.
as §2
Recombinant human FGF23 (1-1.5 μg) was incubated at 37° C. for 4 hours (or other time point indicated) with either recombinant human t-PA (1.1 μg) or uPA (1.1 μg), (in addition to 1.70 μg of recombinant human stable PAI-1 where indicated) in reaction buffer (25 μl final volume) containing: 50 mM Tris-HCl pH 8.0, 150 mM NaCl, 200 mM CHAPS, 0.1% PEG-8000, and 1% DMSO. […]
For orientation: In western blotting, separated proteins are transferred to a membrane and probed.

T1 sequence (P05121 24-402 N173H/K177T/Q342L/M377I): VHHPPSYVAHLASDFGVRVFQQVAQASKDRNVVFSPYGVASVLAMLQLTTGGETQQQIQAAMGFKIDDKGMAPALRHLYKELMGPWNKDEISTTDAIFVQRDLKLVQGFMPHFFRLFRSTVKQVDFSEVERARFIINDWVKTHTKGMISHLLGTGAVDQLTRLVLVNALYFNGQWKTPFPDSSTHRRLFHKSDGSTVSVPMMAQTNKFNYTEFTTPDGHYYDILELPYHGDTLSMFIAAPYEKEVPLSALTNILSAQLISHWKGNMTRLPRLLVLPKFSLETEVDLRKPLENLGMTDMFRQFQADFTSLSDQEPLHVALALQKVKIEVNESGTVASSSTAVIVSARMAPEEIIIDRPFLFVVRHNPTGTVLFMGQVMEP

As to `O=C(COCC(=O)Nc1ccc(Cl)cc1C(=O)O)Nc1cccc(-c2ccoc2)c1` [TM5441], the FGF23 plasma levels result with Klotho (kl/kl) mice was “markedly reduced”. In addition, the “Effect on PAI-1-inhibited FGF23 proteolysis by t-PA” value in test [1] is recorded as “restored”.
“t-PA: Recombinant human t-PA (tissue plasminogen activator) from Molecular Innovations Inc.”: the “FGF23 proteolytic cleavage (smaller fragments on silver stained SDS-PAGE gel)” value with Recombinant human FGF23 (4 hours at 37° C., FIG. 2) is recorded as “smaller fragments are generated”. In addition, the “FGF23 fragments by western blot” value in the test on Recombinant human FGF23 (t-PA, various time points at 37° C., N-term and C-term fragments, FIG. 4) is “confirmed to be of FGF23 origin”.
